Experimental data reported in PubChem BioAssay AID1963975 (Molecular Pharmacology Branch, DTP, NCI, 2024).

Test system: 624824-186-R-J2-PDC multicell spheroids, viability
Assay: Anticancer human tumor 624824-186-R-J2-PDC patient-derived colon adenocarcinoma cell line growth inhibition [PI3K]
Details: for IC50: curve of first compound; for viability, T/C: stronger effect = lower value
Outline: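 Spheroid viability read-out. Co-cultures contained the tumor line plus HUVEC and human MSCs. Each agent was paired with a PI3K inhibitor (inavolisib, alpelisib, duvelisib, copanlisib) across half-log dilutions starting at clinical Cmax, or at 10 microM when Cmax was unknown.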

[1] = second compound 0.00316 µM, first compound 0.0316 µM
[2] = second compound 0.00316 µM, first compound 0.1 µM
[3] = second compound 0.01 µM, first compound 0.0316 µM
[4] = second compound 0.01 µM, first compound 0.1 µM
[5] = second compound 0.0316 µM, first compound 0.0316 µM
[6] = second compound 0.0316 µM, first compound 0.1 µM
[7] = second compound 0.1 µM, first compound 0.0316 µM
[8] = second compound 0.1 µM, first compound 0.1 µM
[9] = second compound 0.316 µM, first compound 0.0316 µM
[10] = second compound 0.316 µM, first compound 0.1 µM
[11] = second compound 1 µM, first compound 0.0316 µM
[12] = second compound 1 µM, first compound 0.1 µM
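Further: spheroids exposed to agents for 7 days before viability read.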
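Wherever viability, T/C is given: 100% = DMSO vehicle treated spheroids.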

## CC(=O)c1c(C)c2cnc(Nc3ccc(N4CCNCC4)cn3)nc2n(C2CCCC2)c1=O + COc1c(OCCCN2CCOCC2)ccc2c3n(c(=NC(=O)c4cnc(N)nc4)nc12)CCN3
Second compound 0.00316 µM
  IC50: > 100 nM
Second compound 0.01 µM
  IC50: > 100 nM
Second compound 0.0316 µM
  IC50: > 100 nM
Second compound 0.1 µM
  IC50: > 100 nM
Second compound 0.316 µM
  IC50: > 100 nM
Second compound 1 µM
  IC50: > 100 nM
Second compound 0.00316 µM, first compound 0.000316 µM
  viability, T/C: 95.5%
Second compound 0.00316 µM, first compound 0.001 µM
  viability, T/C: 94.7%
Second compound 0.00316 µM, first compound 0.00316 µM
  viability, T/C: 90.6%
Second compound 0.00316 µM, first compound 0.01 µM
  viability, T/C: 98.7%
[1]
  viability, T/C: 105%
[2]
  viability, T/C: 84%
Second compound 0.01 µM, first compound 0.000316 µM
  viability, T/C: 104%
Second compound 0.01 µM, first compound 0.001 µM
  viability, T/C: 90%
Second compound 0.01 µM, first compound 0.00316 µM
  viability, T/C: 86.7%
Second compound 0.01 µM, first compound 0.01 µM
  viability, T/C: 94.3%
[3]
  viability, T/C: 97.6%
[4]
  viability, T/C: 96.5%
Second compound 0.0316 µM, first compound 0.000316 µM
  viability, T/C: 82.7%
Second compound 0.0316 µM, first compound 0.001 µM
  viability, T/C: 94.4%
Second compound 0.0316 µM, first compound 0.00316 µM
  viability, T/C: 91.4%
Second compound 0.0316 µM, first compound 0.01 µM
  viability, T/C: 86.7%
[5]
  viability, T/C: 89%
[6]
  viability, T/C: 69.2%
Second compound 0.1 µM, first compound 0.000316 µM
  viability, T/C: 65.9%
Second compound 0.1 µM, first compound 0.001 µM
  viability, T/C: 77.2%
Second compound 0.1 µM, first compound 0.00316 µM
  viability, T/C: 78.2%
Second compound 0.1 µM, first compound 0.01 µM
  viability, T/C: 70.8%
[7]
  viability, T/C: 70%
[8]
  viability, T/C: 55.6%
Second compound 0.316 µM, first compound 0.000316 µM
  viability, T/C: 61.4%
Second compound 0.316 µM, first compound 0.001 µM
  viability, T/C: 68.6%
Second compound 0.316 µM, first compound 0.00316 µM
  viability, T/C: 61.4%
Second compound 0.316 µM, first compound 0.01 µM
  viability, T/C: 57.9%
[9]
  viability, T/C: 66.9%
[10]
  viability, T/C: 53.4%
Second compound 1 µM, first compound 0.000316 µM
  viability, T/C: 59%
Second compound 1 µM, first compound 0.001 µM
  viability, T/C: 58%
Second compound 1 µM, first compound 0.00316 µM
  viability, T/C: 58.7%
Second compound 1 µM, first compound 0.01 µM
  viability, T/C: 58.4%
[11]
  viability, T/C: 62.9%
[12]
  viability, T/C: 55.7%

## CNC(=O)c1ccc(N2C(=S)N(c3ccc(C#N)c(C(F)(F)F)c3)C(=O)C2(C)C)cc1F + COc1c(OCCCN2CCOCC2)ccc2c3n(c(=NC(=O)c4cnc(N)nc4)nc12)CCN3
Second compound 0.00316 µM
  IC50: > 10000 nM
Second compound 0.01 µM
  IC50: > 10000 nM
Second compound 0.0316 µM
  IC50: > 10000 nM
Second compound 0.1 µM
  IC50: > 10000 nM
Second compound 0.316 µM
  IC50: > 10000 nM
Second compound 1 µM
  IC50: > 10000 nM
[1]
  viability, T/C: 77.2%
[2]
  viability, T/C: 74%
Second compound 0.00316 µM, first compound 0.316 µM
  viability, T/C: 76.4%
Second compound 0.00316 µM, first compound 1 µM
  viability, T/C: 91.7%
Second compound 0.00316 µM, first compound 3.16 µM
  viability, T/C: 89.6%
Second compound 0.00316 µM, first compound 10 µM
  viability, T/C: 110%
[3]
  viability, T/C: 110%
[4]
  viability, T/C: 103%
Second compound 0.01 µM, first compound 0.316 µM
  viability, T/C: 99.3%
Second compound 0.01 µM, first compound 1 µM
  viability, T/C: 94%
Second compound 0.01 µM, first compound 3.16 µM
  viability, T/C: 96.9%
Second compound 0.01 µM, first compound 10 µM
  viability, T/C: 99%
[5]
  viability, T/C: 90.4%
[6]
  viability, T/C: 81.7%
Second compound 0.0316 µM, first compound 0.316 µM
  viability, T/C: 96.6%
Second compound 0.0316 µM, first compound 1 µM
  viability, T/C: 96.5%
Second compound 0.0316 µM, first compound 3.16 µM
  viability, T/C: 78.4%
Second compound 0.0316 µM, first compound 10 µM
  viability, T/C: 89.7%
[7]
  viability, T/C: 95.6%
[8]
  viability, T/C: 71.8%
Second compound 0.1 µM, first compound 0.316 µM
  viability, T/C: 73.4%
Second compound 0.1 µM, first compound 1 µM
  viability, T/C: 84%
Second compound 0.1 µM, first compound 3.16 µM
  viability, T/C: 79.9%
Second compound 0.1 µM, first compound 10 µM
  viability, T/C: 70.9%
[9]
  viability, T/C: 62.2%
[10]
  viability, T/C: 66.3%
Second compound 0.316 µM, first compound 0.316 µM
  viability, T/C: 65%
Second compound 0.316 µM, first compound 1 µM
  viability, T/C: 61.5%
Second compound 0.316 µM, first compound 3.16 µM
  viability, T/C: 65.4%
Second compound 0.316 µM, first compound 10 µM
  viability, T/C: 65.3%
[11]
  viability, T/C: 65%
[12]
  viability, T/C: 61.6%
Second compound 1 µM, first compound 0.316 µM
  viability, T/C: 57.2%
Second compound 1 µM, first compound 1 µM
  viability, T/C: 62.5%
Second compound 1 µM, first compound 3.16 µM
  viability, T/C: 63%
Second compound 1 µM, first compound 10 µM
  viability, T/C: 57.3%

## Cn1cnc2c(F)c(Nc3ccc(Br)cc3Cl)c(C(=O)NOCCO)cc21 + COc1c(OCCCN2CCOCC2)ccc2c3n(c(=NC(=O)c4cnc(N)nc4)nc12)CCN3
Second compound 0.00316 µM
  IC50: > 3000 nM
Second compound 0.01 µM
  IC50: > 3000 nM
Second compound 0.0316 µM
  IC50: 243 nM
Second compound 0.1 µM
  IC50: 38 nM
Second compound 0.316 µM
  IC50: < 9.49 nM
Second compound 1 µM
  IC50: < 9.49 nM
Second compound 0.00316 µM, first compound 0.00949 µM
  viability, T/C: 86%
Second compound 0.00316 µM, first compound 0.03 µM
  viability, T/C: 74.6%
Second compound 0.00316 µM, first compound 0.0949 µM
  viability, T/C: 64.4%
Second compound 0.00316 µM, first compound 0.3 µM
  viability, T/C: 68.7%
Second compound 0.00316 µM, first compound 0.949 µM
  viability, T/C: 72.8%
Second compound 0.00316 µM, first compound 3 µM
  viability, T/C: 63.1%
Second compound 0.01 µM, first compound 0.00949 µM
  viability, T/C: 79.3%
Second compound 0.01 µM, first compound 0.03 µM
  viability, T/C: 75.7%
Second compound 0.01 µM, first compound 0.0949 µM
  viability, T/C: 66.5%
Second compound 0.01 µM, first compound 0.3 µM
  viability, T/C: 62.6%
Second compound 0.01 µM, first compound 0.949 µM
  viability, T/C: 62.8%
Second compound 0.01 µM, first compound 3 µM
  viability, T/C: 51.4%
Second compound 0.0316 µM, first compound 0.00949 µM
  viability, T/C: 70.8%
Second compound 0.0316 µM, first compound 0.03 µM
  viability, T/C: 59.2%
Second compound 0.0316 µM, first compound 0.0949 µM
  viability, T/C: 53%
Second compound 0.0316 µM, first compound 0.3 µM
  viability, T/C: 51.5%
Second compound 0.0316 µM, first compound 0.949 µM
  viability, T/C: 42.4%
Second compound 0.0316 µM, first compound 3 µM
  viability, T/C: 28.5%
Second compound 0.1 µM, first compound 0.00949 µM
  viability, T/C: 60%
Second compound 0.1 µM, first compound 0.03 µM
  viability, T/C: 54.6%
Second compound 0.1 µM, first compound 0.0949 µM
  viability, T/C: 36%
Second compound 0.1 µM, first compound 0.3 µM
  viability, T/C: 37.4%
Second compound 0.1 µM, first compound 0.949 µM
  viability, T/C: 31.4%
Second compound 0.1 µM, first compound 3 µM
  viability, T/C: 15.3%
Second compound 0.316 µM, first compound 0.00949 µM
  viability, T/C: 50.7%
Second compound 0.316 µM, first compound 0.03 µM
  viability, T/C: 38.9%
Second compound 0.316 µM, first compound 0.0949 µM
  viability, T/C: 39.9%
Second compound 0.316 µM, first compound 0.3 µM
  viability, T/C: 28.3%
Second compound 0.316 µM, first compound 0.949 µM
  viability, T/C: 18.9%
Second compound 0.316 µM, first compound 3 µM
  viability, T/C: 2.2%
Second compound 1 µM, first compound 0.00949 µM
  viability, T/C: 49.1%
Second compound 1 µM, first compound 0.03 µM
  viability, T/C: 39.7%
Second compound 1 µM, first compound 0.0949 µM
  viability, T/C: 33.5%
Second compound 1 µM, first compound 0.3 µM
  viability, T/C: 26.4%
Second compound 1 µM, first compound 0.949 µM
  viability, T/C: 11.1%
Second compound 1 µM, first compound 3 µM
  viability, T/C: 1.13%
